Reference: patent US20120214818A1, “METHODS OF TREATING DIASTOLIC DYSFUNCTION AND RELATED CONDITIONS” (THE BOARD OF TRUSTEES OF THE UNIVERSITY OF ILLINOIS, priority 2009, published 2012)
Values joined by “and” are separate entries in the source; they are usually repeats but may differ in a detail not shown here. Identical values can stand only once.

Columns and labels:
[1] = test system: late INa in isolated murine ventricular myocytes; test: Voltage-clamp determination of sodium current (late INa); format: cell-based, mouse; design: late INa (integrated from 5% of peak current to 40 ms after depolarization): unit not given here; conditions: 10 μmol/L ranolazine extracellular; for late INa (integrated from 5% of peak current to 40 ms after depolarization): 15 min
Protocol: Electrophysiological determination of sodium current: Voltage-clamp experiments were performed on isolated murine ventricular myocytes with an Axopatch 200B amplifier (Molecular Devices, Sunnyvale, Calif.) in whole cell configuration. Data acquisition was performed at a sampling rate of 20 kHz and filtered at 10 kHz. Data recording and analysis were done with the pClamp8 software suite (Molecular Devices) and OriginPro 8 (Originlab, Northampton, Mass.). All experiments were carried out at room temperature. Myocytes were plated on glass cover slips and were perfused with a low-sodium Tyrode solution containing the following (in mM): N-methyl-D-glucamine 100 (titrated to pH 7.4 with HCl), NaCl 15, tetramethylammonium chloride 20, CsC15, MgCl2 1, glucose 10, 4-aminopyridine 3, MnCl2 2, HEPES10, and CaCl2 1 (final pH 7.4, CsOH). Patch electrodes were pulled from capillaries purchased from Harvard Apparatus (Holliston, Mass.) using a model P-97 puller from Sutter Instruments (Novato, Calif.). Electrodes were filled with an electrode solution containing (in mM): CsCl 20, tetraethylammonium chloride 20, glutamic acid 80, NaCl 10, MgCl2 1, MgATP 5, Li2GTP 0.3, HEPES10, EGTA 10, CaCl2 0.13 (corresponding to [Ca^2+]free of <10 nM).^23 Electrode solution pH was adjusted to 7.2 with CsOH. Electrodes used for these experiments had access resistances between 1.0 and 1.5 MΩ.
Ranolazine was provided as a crystalline solid by Gilead Sciences. Prior to experiments, a DMSO stock solution was prepared and diluted (minimum 100:1) directly into the Tyrode solution used for perfusion. Cells that were treated with ranolazine were exposed to the drug for 15 min prior to beginning voltage-clamp experiments.
Voltage clamping studies: Voltage-clamp experiments were performed on isolated murine ventricular myocytes with an Axopatch 200B amplifier (Molecular Devices, Sunnyvale, Calif.) in whole cell configuration. Data acquisition was performed at a sampling rate of 20 kHz and filtered at 10 kHz. […]

DOCA-salt mice = test: Myofilament calcium sensitivity of fibers from mice chronically treated with ranolazine; format: in vivo, mouse; conditions: fibers from hearts of DOCA-salt mice chronically treated with ranolazine vs. DOCA-salt mice
Protocol: A special diet contained 5 mg ranolazine, 0.3 mg P450 inhibitor, and 0.25 mg red food color was pressed into a 1-g nutritionally complete grain-based tablet (Harlan, Madison, Wis.). The control diet contained 0.3 mg P450 inhibitor and 0.25 mg yellow food color pressed into the same type of 1-g tablets. DOCA-salt and sham mice consumed daily ˜1 g of the special diet from postoperative day 11 to 18. […] We also determined Ktr, which is a measure of the rate of re-entry of cross-bridges into force generating states.

Structure (SMILES): COc1ccccc1OCC(O)CN1CCN(CC(=O)Nc2c(C)cccc2C)CC1 (stereo not shown) [ranolazine]
- late accumulated charge ([1]; DOCA-salt cardiomyocytes): did not affect the late accumulated charge
- late INa (integrated from 5% of peak current to 40 ms after depolarization) ([1]; DOCA-salt myocytes): 0.1142±0.01272 and 0.114±0.013
- late INa (integrated from 5% of peak current to 40 ms after depolarization) ([1]; sham myocytes): 0.1126±0.00406 and 0.113±0.004
- maximal tension in response to Ca2+ (DOCA-salt mice): significantly reduces maximal tension
